For the assay, the target named is Trypanosoma evansi protein-tyrosine phosphatase (PTPase). The note with it: competitive; substrate pNPP; 25 mM HEPES pH 7.3, 10% glycerol, no EDTA; 37 °C.

On to `[O]=[V]([OH])([OH])[OH]` [sodium orthovanadate], for which the Ki was 200 µg/mL.

These data come from paper PMC6927228 (Journal of Experimental Pharmacology, 2019).
